This is an account of results in patent publication US20100273650A1, “Fungicidal Mixtures Comprising a Substituted 3-Hydroxymethylpyridine and a Further Fungicidal Compound” (BASF SE, priority 2007, published 2010).

Common to all, as to assay type: cell-based
In experiment [1] the test system is Phytophthora infestans. Kind of experiment: microbe, parasite or virus in culture. The note with it: 168 h, read-out: Observed efficacy.
The subject of experiment [2] is Septoria tritici. Description: Activity against leaf blotch on wheat caused by Septoria tritici in the microtiter test (Septtr). Particulars: single active compound, 405 nm, day 7 after inoculation.
Experiment [3] has as its system Pyricularia oryzae. Particulars: single active compound, 405 nm, 7 days after inoculation.

Like-named read-outs stand apart in the source and are kept apart here.

Consider `CNC(=O)/C(=N/OC)c1ccccc1COc1cc(C)ccc1C` [Dimoxystrobin, (E)-2-(methoxyimino)-N-methyl-2-[α-(2,5-xylyloxy)-o-tolyl]acetamide], for which the inhibition of growth at 0.25 ppm in experiment [1] turned out to be 42%.

For `N#Cc1c(Cl)c(Cl)c(Cl)c(C#N)c1Cl` [Chlorothalonil, 2,4,5,6-tetrachloroisophthalonitrile], the inhibition of growth at 0.25 ppm in experiment [1] came to 10%.

`CC(Cc1ccc(C(C)(C)C)cc1)CN1C[C@@H](C)O[C@@H](C)C1` (mixture of isomers) [Fenpropimorph, (RS)-cis-4-[3-(4-tert-butylphenyl)-2-methylpropyl]-2,6-dimethylmorpholine]: in experiment [2] (1 ppm), the Observed efficacy turned out to be 9%.

For `OC(Cc1ccccc1Cl)(Cn1nc[nH]c1=S)C1(Cl)CC1` (stereo not drawn) [Prothioconazole, 2-[2-(1-chlorocyclopropyl)-3-(2-chlorophenyl)-2-hydroxypropyl]-2,4-dihydro-[1,2,4]triazole-3-thione], the inhibition of growth at 16 ppm in experiment [1] is 22%.

In experiment [2] (0.25 ppm), `CC(C)(C)C(O)(CCc1ccc(Cl)cc1)Cn1cncn1` (stereo not drawn) [Tebuconazol, 1-(4-chlorophenyl)-4,4-dimethyl-3-[1,2,4]triazol-1-ylmethylpentan-3-ol] returned an Observed efficacy of 63%.

In the case of `O=C1C2CC=CCC2C(=O)N1SC(Cl)(Cl)Cl` (stereo not drawn) [Captan, 2-trichloromethylsulfanyl-3a,4,7,7a-tetrahydroisoindole-1,3-dione], the inhibition of growth at 1 ppm in experiment [1] amounted to 26%.

`OC(c1cccnc1)c1c(-c2ccc(F)cc2F)csc1-c1ccc(F)cc1F` (stereo not drawn) [I.16, 2,4-Bis-(2,4-Difluorophenyl)-3-[(3-pyridyl)hydroxymethyl]thiophene]: the inhibition of growth at 1 ppm in experiment [1] is 0%. The Observed efficacy in experiment [3] (1 ppm) stood at 0%.

As for `Cc1ccc(C(C)NC(=O)[C@@H](NC(=O)OC(C)C)C(C)C)cc1` (stereo partly drawn) [Iprovalicarb, isopropyl [(1S)-2-methyl-1-(1-p-tolylethylcarbamoyl)propyl]carbamate], in experiment [1], the inhibition of growth at 1 ppm came out at 66%.

Regarding `CCCCCCCCCCCCCN1CC(C)OC(C)C1` (stereo not drawn) [Tridemorph, 2,6-dimethyl-4-tridecylmorpholine], the Observed efficacy in experiment [2] (1 ppm) amounted to 3%.

“zinc propylenebis(dithiocarbamate) polymer [Propineb]” returned an Observed efficacy in experiment [3] (1 ppm) of 23%.

As for `OC(c1cccnc1)c1c(-c2ccc(Cl)cc2)csc1-c1ccc(Cl)cc1` (stereo not drawn) [I.8, 2,4-Bis-(4-chlorophenyl)-3-[(3-pyridyl)hydroxymethyl]thiophene], the Observed efficacy in experiment [2] (0.063 ppm) stood at 4%; in experiment [2] (0.25 ppm), 10%; in experiment [3] (0.25 ppm), 2%; in experiment [3] (1 ppm) it was 0%. In addition, in experiment [1], the inhibition of growth at 0.063 ppm worked out at 2%. Besides, the inhibition of growth at 0.25 ppm in experiment [1] was found to be 1%. For the same compound, the inhibition of growth at 1 ppm in experiment [1] amounted to 4%. For the same compound, in experiment [1], the inhibition of growth at 4 ppm was 19%.

`CCCCCCCCc1c(CC)nc2ncnn2c1N` [5-ethyl-6-octyl-[1,2,4]triazolo[1,5-a]pyrimidine-7-ylamine]: the inhibition of growth at 0.25 ppm in experiment [1] was 29%.

Consider `COC(=O)Nc1nc2ccccc2[nH]1` [Carbendazim, methyl (1H-benzoimidazol-2-yl)-carbamate], for which the Observed efficacy in experiment [3] (0.25 ppm) is recorded as 24%.
